Reference: US9296723B2, “NAMPT inhibitors” (AbbVie Inc., priority 2012, dated 2016)

What was measured:
NAMPT [1] = biological target: T1, NAMPT (Homo sapiens, UniProt P43490); assay: Time-Resolved Fluorescence Resonance Energy Transfer (TR-FRET) Binding Assay of NAMPT; conditions: 6.8 nM NAMPT, 200 nM probe, equilibrated 3 hours, no substrates
Outline: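 Compound was mixed with enzyme, probe and antibody and equilibrated 3 h at room temperature. TR-FRET read at Ex 337 nm, Em 520/495 nm. Ratios were normalized to controls and fitted to a four-parameter logistic equation for IC50.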

NAMPT [2] = biological target: T1, NAMPT; assay: TR-FRET Binding Assay of NAMPT with PRPP; conditions: 2 nM NAMPT, 2 nM probe, 200 µM PRPP and 2.5 mM ATP, equilibrated 16 hours
Outline: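 TR-FRET probe displacement with 2 nM NAMPT, 2 nM probe and 1 nM Tb-anti-His antibody in the presence of 200 µM PRPP and 2.5 mM ATP, 2% DMSO (all final). Equilibrated 16 hours before reading to permit possible enzymatic modification of compounds.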

PC3 cells = assay: NAMPT Cell Proliferation Assay (Cell Titer Glo); format: cell-based; conditions: Homo sapiens, PC-3, 120 h, incubated 5 days, cell viability
Outline: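 PC3 cells (500/well, RPMI with 10% heat-inactivated FBS) were exposed to 10-fold compound dilutions from […] for 5 days at 37 °C, 5% CO2. Viability was read with Cell Titer Glo; IC50 from sigmoidal fit of percent inhibition.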

T1 sequence (P43490 whole entry): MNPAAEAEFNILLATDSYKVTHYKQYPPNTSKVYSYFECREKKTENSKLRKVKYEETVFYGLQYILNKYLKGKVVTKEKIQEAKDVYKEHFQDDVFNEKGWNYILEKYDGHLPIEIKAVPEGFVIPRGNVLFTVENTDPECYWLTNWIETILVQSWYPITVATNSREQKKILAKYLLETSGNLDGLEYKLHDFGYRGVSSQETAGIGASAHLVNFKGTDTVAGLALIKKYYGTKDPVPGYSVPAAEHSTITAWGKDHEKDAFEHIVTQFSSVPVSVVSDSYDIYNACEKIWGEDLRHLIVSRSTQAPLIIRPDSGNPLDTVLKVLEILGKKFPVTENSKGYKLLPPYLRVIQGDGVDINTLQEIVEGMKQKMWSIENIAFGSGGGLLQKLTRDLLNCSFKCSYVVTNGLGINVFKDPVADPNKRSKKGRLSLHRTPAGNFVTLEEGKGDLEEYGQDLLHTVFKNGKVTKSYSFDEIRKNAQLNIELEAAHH

Row | Compound | IC50 (NAMPT [1]) [nM] | IC50 (NAMPT [2]) [nM] | IC50 (PC3 cells) [nM]
1 | O=C(CC1C[C@@H]2CC[C@H]1C2)N1CCC(c2ccc(NC(=O)N3CC(c4cccnc4)C3)cc2)C1 (stereo partly drawn) [Example 260, N-(4-{1-[(1S,4R)-bicyclo[2.2.1]hept-2-ylacetyl]pyrrolidin-3-yl}phenyl)-3-(pyridin-3-yl)azetidine-1-carboxamide] | 38.4 | 0.302 | 94.9
2 | O=C(CC1CCCC1)N1CCC(c2ccc(NC(=O)N3CC(c4cccnc4)C3)cc2)C1 (stereo not drawn) [Example 261, N-{4-[1-(cyclopentylacetyl)pyrrolidin-3-yl]phenyl}-3-(pyridin-3-yl)azetidine-1-carboxamide] | 33.5 | 0.194 | 71.3
3 | CC1CC1C(=O)N1CCC(c2ccc(NC(=O)N3CC(c4cccnc4)C3)cc2)C1 (stereo not drawn) [Example 262, N-(4-{1-[(2-methylcyclopropyl)carbonyl]pyrrolidin-3-yl}phenyl)-3-(pyridin-3-yl)azetidine-1-carboxamide] | 60.4 | 0.252 | 51.6
4 | O=C(CN1CCOCC1)N1CCC(c2ccc(NC(=O)N3CC(c4cccnc4)C3)cc2)C1 (stereo not drawn) [Example 263, N-{4-[1-(morpholin-4-ylacetyl)pyrrolidin-3-yl]phenyl}-3-(pyridin-3-yl)azetidine-1-carboxamide] | 143 | 0.239 | 365
5 | O=C(Nc1ccc(C2CCN(C(=O)c3ccoc3)C2)cc1)N1CC(c2cccnc2)C1 (stereo not drawn) [Example 264, N-{4-[1-(furan-3-ylcarbonyl)pyrrolidin-3-yl]phenyl}-3-(pyridin-3-yl)azetidine-1-carboxamide] | 40.9 | 0.188 | 35.1
6 | O=C(Nc1ccc(C2CCN(C(=O)c3nccs3)C2)cc1)N1CC(c2cccnc2)C1 (stereo not drawn) [Example 267, 3-(pyridin-3-yl)-N-{4-[1-(1,3-thiazol-2-ylcarbonyl)pyrrolidin-3-yl]phenyl}azetidine-1-carboxamide] | 22.5 | 0.297 | 17.8
7 | O=C(Nc1ccc(C2CCN(C(=O)c3ccsc3)C2)cc1)N1CC(c2cccnc2)C1 (stereo not drawn) [Example 268, 3-(pyridin-3-yl)-N-{4-[1-(thiophen-3-ylcarbonyl)pyrrolidin-3-yl]phenyl}azetidine-1-carboxamide] | 36.5 | 0.225 | 22.8
8 | Cc1ccsc1C(=O)N1CCC(c2ccc(NC(=O)N3CC(c4cccnc4)C3)cc2)C1 (stereo not drawn) [Example 270, N-(4-{1-[(3-methylthiophen-2-yl)carbonyl]pyrrolidin-3-yl}phenyl)-3-(pyridin-3-yl)azetidine-1-carboxamide] | 8.17 | 0.196 | 19.5
9 | O=C(CCC(F)(F)F)N1CCC(c2ccc(NC(=O)N3CC(c4cccnc4)C3)cc2)C1 (stereo not drawn) [Example 271, 3-(pyridin-3-yl)-N-{4-[1-(4,4,4-trifluorobutanoyl)pyrrolidin-3-yl]phenyl}azetidine-1-carboxamide] | 46.9 | 0.279 | 60.4
10 | CN1CCN(CC(=O)N2CCC(c3ccc(NC(=O)N4CC(c5cccnc5)C4)cc3)C2)CC1 (stereo not drawn) [Example 272, N-(4-{1-[(4-methylpiperazin-1-yl)acetyl]pyrrolidin-3-yl}phenyl)-3-(pyridin-3-yl)azetidine-1-carboxamide] | 90.7 | 0.241 | 222
11 | CCOCCC(=O)N1CCC(c2ccc(NC(=O)N3CC(c4cccnc4)C3)cc2)C1 (stereo not drawn) [Example 274, N-{4-[1-(3-ethoxypropanoyl)pyrrolidin-3-yl]phenyl}-3-(pyridin-3-yl)azetidine-1-carboxamide] | 82.2 | 0.264 | 68.5
12 | CC(C)CCC(=O)N1CCC(c2ccc(NC(=O)N3CC(c4cccnc4)C3)cc2)C1 (stereo not drawn) [Example 275, N-{4-[1-(4-methylpentanoyl)pyrrolidin-3-yl]phenyl}-3-(pyridin-3-yl)azetidine-1-carboxamide] | 38.3 | 0.363 | 34.5
13 | CC1(C(=O)N2CCC(c3ccc(NC(=O)N4CC(c5cccnc5)C4)cc3)C2)CCCCC1 (stereo not drawn) [Example 276, N-(4-{1-[(1-methylcyclohexyl)carbonyl]pyrrolidin-3-yl}phenyl)-3-(pyridin-3-yl)azetidine-1-carboxamide] | 12.4 | 0.347 | 10
14 | O=C(CC1CCCCC1)N1CCC(c2ccc(NC(=O)N3CC(c4cccnc4)C3)cc2)C1 (stereo not drawn) [Example 278, N-{4-[1-(cyclohexylacetyl)pyrrolidin-3-yl]phenyl}-3-(pyridin-3-yl)azetidine-1-carboxamide] | 19.7 | 0.213 | 30.6
15 | CCC(=O)N1CCC(c2ccc(NC(=O)N3CC(c4cccnc4)C3)cc2)C1 (stereo not drawn) [Example 279, N-[4-(1-propanoylpyrrolidin-3-yl)phenyl]-3-(pyridin-3-yl)azetidine-1-carboxamide] | 92.1 | 0.204 | 47.6
16 | CC(C)(C)C(=O)N1CCC(c2ccc(NC(=O)N3CC(c4cccnc4)C3)cc2)C1 (stereo not drawn) [Example 282, N-{4-[1-(2,2-dimethylpropanoyl)pyrrolidin-3-yl]phenyl}-3-(pyridin-3-yl)azetidine-1-carboxamide] | 26.6 | 0.219 | 14.3
17 | Cc1ccc(C(=O)N2CCC(c3ccc(NC(=O)N4CC(c5cccnc5)C4)cc3)C2)s1 (stereo not drawn) [Example 283, N-(4-{1-[(5-methylthiophen-2-yl)carbonyl]pyrrolidin-3-yl}phenyl)-3-(pyridin-3-yl)azetidine-1-carboxamide] | 33.7 | 0.266 | 61.7
18 | O=C(Nc1ccc(C2CCN(C(=O)c3cccs3)C2)cc1)N1CC(c2cccnc2)C1 (stereo not drawn) [Example 284, 3-(pyridin-3-yl)-N-{4-[1-(thiophen-2-ylcarbonyl)pyrrolidin-3-yl]phenyl}azetidine-1-carboxamide] | 18.3 | 0.204 | 22.3
19 | O=C(CCN1CCCCC1)N1CCC(c2ccc(NC(=O)N3CC(c4cccnc4)C3)cc2)C1 (stereo not drawn) [Example 287, N-(4-{1-[3-(piperidin-1-yl)propanoyl]pyrrolidin-3-yl}phenyl)-3-(pyridin-3-yl)azetidine-1-carboxamide] | 30.1 | 0.189 | 37.4
20 | CCOCC(=O)N1CCC(c2ccc(NC(=O)N3CC(c4cccnc4)C3)cc2)C1 (stereo not drawn) [Example 288, N-{4-[1-(ethoxyacetyl)pyrrolidin-3-yl]phenyl}-3-(pyridin-3-yl)azetidine-1-carboxamide] | 117 | 0.227 | 84

Next, values leading:

Row | IC50 (NAMPT [1]) [nM] | IC50 (NAMPT [2]) [nM] | IC50 (PC3 cells) [nM] | Compound
21 | 29.6 | 0.204 | 35.2 | CC(C)(C)CC(=O)N1CCC(c2ccc(NC(=O)N3CC(c4cccnc4)C3)cc2)C1 (stereo not drawn) [Example 289, N-{4-[1-(3,3-dimethylbutanoyl)pyrrolidin-3-yl]phenyl}-3-(pyridin-3-yl)azetidine-1-carboxamide]
22 | 11.1 | 0.224 | 10.3 | CCC(C)(C)C(=O)N1CCC(c2ccc(NC(=O)N3CC(c4cccnc4)C3)cc2)C1 (stereo not drawn) [Example 290, N-{4-[1-(2,2-dimethylbutanoyl)pyrrolidin-3-yl]phenyl}-3-(pyridin-3-yl)azetidine-1-carboxamide]
23 | 25.8 | 0.207 | 150 | CC(=O)C(=O)N1CCC(c2ccc(NC(=O)N3CC(c4cccnc4)C3)cc2)C1 (stereo not drawn) [Example 291, N-{4-[1-(2-oxopropanoyl)pyrrolidin-3-yl]phenyl}-3-(pyridin-3-yl)azetidine-1-carboxamide]
24 | 268 | 0.259 | 87.8 | COCC(=O)N1CCC(c2ccc(NC(=O)N3CC(c4cccnc4)C3)cc2)C1 (stereo not drawn) [Example 292, N-{4-[1-(methoxyacetyl)pyrrolidin-3-yl]phenyl}-3-(pyridin-3-yl)azetidine-1-carboxamide]
25 | 56.6 | 0.21 | 70.5 | O=C(Nc1ccc(C2CCN(C(=O)C3CCCCC3)C2)cc1)N1CC(c2cccnc2)C1 (stereo not drawn) [Example 293, N-{4-[1-(cyclohexylcarbonyl)pyrrolidin-3-yl]phenyl}-3-(pyridin-3-yl)azetidine-1-carboxamide]
26 | 44.3 | 0.2 | 60.9 | CC(C)CC(=O)N1CCC(c2ccc(NC(=O)N3CC(c4cccnc4)C3)cc2)C1 (stereo not drawn) [Example 294, N-{4-[1-(3-methylbutanoyl)pyrrolidin-3-yl]phenyl}-3-(pyridin-3-yl)azetidine-1-carboxamide]
27 | 50.7 | 0.272 | 66.5 | O=C(Nc1ccc(C2CCN(C(=O)C3CCCC3)C2)cc1)N1CC(c2cccnc2)C1 (stereo not drawn) [Example 295, N-{4-[1-(cyclopentylcarbonyl)pyrrolidin-3-yl]phenyl}-3-(pyridin-3-yl)azetidine-1-carboxamide]
28 | 26.4 | 0.243 | 19.8 | CC(C)C(C)C(=O)N1CCC(c2ccc(NC(=O)N3CC(c4cccnc4)C3)cc2)C1 (stereo not drawn) [Example 296, N-{4-[1-(2,3-dimethylbutanoyl)pyrrolidin-3-yl]phenyl}-3-(pyridin-3-yl)azetidine-1-carboxamide]
29 | 56.6 | 0.236 | 18.2 | CCCCC(=O)N1CC[C@@H](Oc2ccc(NC(=O)N3CC(c4cccnc4)C3)cc2)C1 [Example 297, N-(4-{[(3R)-1-pentanoylpyrrolidin-3-yl]oxy}phenyl)-3-(pyridin-3-yl)azetidine-1-carboxamide]
